Entries after “also recorded” stand apart in the source; their conditions may differ.
Columns and labels:
Assay type in all cases: cell-based, human
[1] = test system: uPAR; assay: uPAR expression by flow cytometry (mAb 3937) on HTR-8/SVneo cells; conditions: for effect on the inhibition by carbon monoxide of hypoxia-induced uPAR expression: compound in the medium, hypoxia + CO, two independent experiments
Procedure: (§1) To determine whether hypoxia regulates the expression of certain genes (e.g., PAI-1, uPAR, RTP/Drg1) via an iron-containing heme protein, cells were cultured for up to 72 h at 20% oxygen in the presence or absence of either 100 μM cobalt chloride, or 30 mM sodium 4,5-dihydroxybenzene-1,3-disulfonate (Tiron), or 100 μM desferrioxamine mesylate (DFO) (Sigma Chemical CO., St. Louis, Mo.). Further confirmation of the role of a heme protein in hypoxic responses can be achieved by culturing cells under hypoxia in the presence of carbon monoxide, which maintains the heme protein in the oxy state and thereby blocks heme protein-mediated hypoxic responses. Thus, cells were also cultured for 24 h at 37° C. under hypoxic conditions in the presence of 30% carbon monoxide.
Determination of uPAR expression by flow cytometry. For flow cytometry, cells were released from flasks by incubation in cold PBS containing 5 mM EDTA. One million cells were then incubated for 1 h, at 4° C., with either 10 μg/ml of mAb 3937, or control mouse IgG2a, used at the same concentration. Bound antibody was detected using FITC-conjugated goat anti-mouse immunoglobulin. Cells were then fixed with 2% paraformaldehyde in PBS prior to analysis using a Coulter Elite Flow Cytometer.

[2] = test system: RTP/Drg1 mRNA; assay: Northern blot of RTP/Drg1 mRNA in MDA-MB-231 cells; conditions: for levels of RTP/Drg1 mRNA: 20% oxygen, up to 72 h, 100 μM cobalt chloride, 30 mM Tiron or 100 μM DFO; for effect on hypoxic up-regulation of RTP/Drg1 mRNA: 1% oxygen + 30% CO, 24 h; for effect of CO on up-regulation of RTP/Drg1 mRNA induced by cobalt chloride, Tiron and DFO: hypoxic conditions with CO
Procedure: as §1
(§2) Northern Blot Analysis. Total RNA was isolated from cell lines as described above. Aliquots of 20 μg were denatured and subjected to electrophoresis in 1% agarose-formaldehyde gels (Sambrook, J., Fritsch, E. F., and Maniatis, T. Molecular Cloning: A Laboratory Manual, Cold Spring Harbor Laboratory, Cold Spring Harbor, N.Y. (1989)). RNA was transferred to nylon membranes (Micron Separations, Inc., Westboro, Mass.). After prehybridization at 42° C. for 2-3 h in 50% formamide, 5×Denhardt's solution, 0.5% sodium dodecyl sulfate (SDS), 6×SSC (1×SSC: 0.15M NaCl, 15 mM sodium citrate, pH 7.0), and 100 μg/mL denatured salmon sperm DNA, membranes were hybridized for a period of time of overnight (˜18 h) to about 72 h at 42° C. with a cDNA probe (e.g., RTP/Drg1, PAI-1 (PAI-1 cDNA provided by Dr. Keith McCrae, Temple University School of Medicine, Philadelphia, Pa.), uPAR (Higazi A, et al., J Biol Chem 266:12752, (1995)) pre-labeled with [^32P]-dCTP using a Pharmacia Oligolabelling kit (Pharmacia Biotech, Piscataway, N.J.). The hybridization solution contained 6×SSC, 0.5% SDS, 100 μg/mL denatured salmon sperm DNA, 50% formamide and cDNA probe. After hybridization, the membranes were washed with 2×SSC and 0.5% SDS at room temperature for 15 min, 2×SSC and 0.1% SDS at room temperature for 15 min, and 0.1×SSC and 0.5% SDS for 30 min. Dupont Reflection NEF film (Dupont Canada, Inc., Mississauga, ON) was exposed to the membranes for 1-3 days at −80° C. Bands on radiographic film were analyzed using a SigmaGel gel analysis software package (Jandel Scientific Software, San Rafael, Calif.).

[3] = test system: uPAR; assay: Binding of [125I]-prourokinase to HTR-8/SVneo cells (uPAR expression); conditions: for Kd: Kd of [125I]-prourokinase on cells cultured with compound, read-out: Kd (nM) ± SEM; for increase in the expression of uPAR: flow cytometric and radioligand binding studies; for Bmax (sites/cell) ± SEM: [125I]-prourokinase binding to cells cultured with compound
Procedure: Determination of uPAR expression by urokinase binding analysis. Measurement of uPAR expression by ligand binding analysis was performed using [^125I]-prourokinase as the ligand, as described (Zini J M, et al., Blood 79:2917 (1992)). Prourokinase was radiolabeled with ^125I, using Iodobeads, to a specific radioactivity of at least 10^6 cpm/μg. Cells were then chilled to 4° C., washed with cold PBS containing 1% BSA, and incubated for 2 h with increasing concentrations of[^125I]-prourokinase in the absence (to determine total binding) or presence (to determine non-specific binding) of a 100-fold molar excess of unlabeled prourokinase. Specific binding was defined as the difference between total and non-specific binding, and analyzed by non-linear curve fitting methods (least squares method) using the Kaliedograph software program (Synergy Software, Reading, Pa.).

[4] = test system: PAI-1 mRNA; assay: Northern blot of PAI-1 mRNA in HTR-8/SVneo cells; conditions: for increase in PAI-1 mRNA (3.0-kb and 2.3-kb transcripts): 24 hours in the presence of compound
Procedure: as §1, with “Thus, cells were also cultured for 24 h at 37° C. under hypoxic conditions in the presence of 30% carbon monoxide.” left out
as §2, with “After hybridization, the membranes were washed with 2×SSC and 0.5% SDS at room temperature for 15 min, 2×SSC and 0.1% SDS at room temperature for 15 min, and 0.1×SSC and 0.5% SDS for 30 min. Dupont Reflection NEF film (Dupont Canada, Inc., Mississauga, ON) was exposed to the membranes for 1-3 days at −80° C.” left out, “Calif.). […]” for “Calif.).”

[5] = test system: cell-associated uPA; assay: Zymography of cell-associated plasminogen activators in MDA-MB-231 cell extracts
Procedure: To assess the levels of plasminogen activators associated with cells cultured for 24 h under 20% and 1% O2, extracts were prepared by disrupting trypsinized cell pellets with 2% SDS in Tris-buffered saline (TBS; 10 mM Tris, 0.15 M NaCl, pH 7.5) using a Polytron homogenizer (Brinkmann Instruments, Rexdale, ON, Canada). The homogenates were centrifuged at 15,000 g for 15 min to remove insoluble materials and 100 μg of extracted protein were analyzed by casein-plasminogen gel zymography as described above.

Structure (SMILES) | effect on the inhibition by carbon monoxide of hypoxia-induced uPAR expression [1] | levels of RTP/Drg1 mRNA [2] | Kd [3] | increase in the expression of uPAR ([3]; Tiron) | Bmax (sites/cell) ± SEM [3] | increase in PAI-1 mRNA (3.0-kb and 2.3-kb transcripts) [4] | inhibition of hypoxia-induced expression of uPAR ([1]; 1% O2 + 20% carbon monoxide, 24 h, flow cytometry) | effect on hypoxic up-regulation of RTP/Drg1 mRNA [2] | effect on hypoxic up-regulation of RTP/Drg1 mRNA ([2]; listed as CO) | effect of CO on up-regulation of RTP/Drg1 mRNA induced by cobalt chloride, Tiron and DFO [2] | effect of CO on up-regulation of RTP/Drg1 mRNA induced by cobalt chloride, Tiron and DFO ([2]; listed as CO) | effect on hypoxic increase in cell-associated uPA ([5]; 1% O2 + 30% CO, listed as CO) | effect on hypoxia-mediated increase in PAI-1 mRNA levels ([4]; 1% oxygen + 20% carbon monoxide, 24 hours) | increase in the expression of uPAR ([3]; cobalt chloride) | cell-associated uPA levels ([5]; culture with cobalt chloride)
O=S(=O)([O-])c1cc(O)c(O)c(S(=O)(=O)[O-])c1.[Na+].[Na+] [Tiron, sodium 4,5-dihydroxybenzene-1,3-disulfonate] | completely prevented | time-dependent increases in RTP/Drg1 mRNA | 8.08 ± 1.11 nM | 3 fold | 623,213 ± 102,360 sites/cell | substantial increase |  |  |  |  |  |  |  |  | 
[C-]#[O+] [carbon monoxide] |  |  |  |  |  |  | 56% | abrogated | substantial decrease in mRNA levels | did not inhibit | unable to inhibit | abrogated the hypoxic increase in cell-associated uPA; also recorded: prevented the effect of hypoxia on cell-associated uPA increases | prevented most of the hypoxia-mediated increase in PAI-1 mRNA levels; also recorded: abolished the effect of hypoxia on PAI-1 mRNA levels |  | 
[Cl][Co][Cl] [cobalt chloride] | completely prevented | time-dependent increases in RTP/Drg1 mRNA | 3.58 ± 0.69 nM |  | 285,711 ± 38,324 sites/cell | about 2 fold |  |  |  |  |  |  |  | 28% | increased cell-associated uPA

Reference: patent US6376169B1, “Method for diagnosing a vascular condition” (Queens University at Kingston, priority 1998, dated 2002)
